Experimental data published in article PMC2629123, “Trypanosoma cruzi CYP51 Inhibitor Derived from a Mycobacterium tuberculosis Screen Hit” (PLoS Neglected Tropical Diseases, 2009).
Where two headings read alike, the source gives them in different places.

How the values were obtained:
CYP51Tc = target: T1, CYP51Tc (Trypanosoma cruzi, UniProt Q7Z1V1); assay: biochemical; type: binding
T1 construct: His6 (C); made in house; host or cells: Escherichia coli HMS174(DE3)

CYP51Tb = target: T2, CYP51Tb (Trypanosoma brucei brucei, UniProt Q385E8, L2A); assay: biochemical; type: binding; conditions: spectral titration, room temperature, pH 7.5
T2 construct: His8 (C); made in house; host or cells: E. coli HMS174(DE3) co-transformed with pGro7 (GroES/GroEL)
T2 sequence (Q385E8 whole entry L2A): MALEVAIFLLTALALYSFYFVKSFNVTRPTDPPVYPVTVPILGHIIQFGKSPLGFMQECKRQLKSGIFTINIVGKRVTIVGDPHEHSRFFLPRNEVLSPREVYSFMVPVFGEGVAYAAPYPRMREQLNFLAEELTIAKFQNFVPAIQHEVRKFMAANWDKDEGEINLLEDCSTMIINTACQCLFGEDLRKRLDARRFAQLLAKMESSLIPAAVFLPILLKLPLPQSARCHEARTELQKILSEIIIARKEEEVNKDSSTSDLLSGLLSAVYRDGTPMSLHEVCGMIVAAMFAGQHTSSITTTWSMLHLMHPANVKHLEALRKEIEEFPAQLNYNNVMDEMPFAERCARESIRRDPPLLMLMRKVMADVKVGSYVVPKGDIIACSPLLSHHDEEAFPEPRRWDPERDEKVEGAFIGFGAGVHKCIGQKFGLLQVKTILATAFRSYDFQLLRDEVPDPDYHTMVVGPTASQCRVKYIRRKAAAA

[1] = system: T. cruzi Y strain trypomastigotes; assay: T. cruzi assay: infection of J774 mouse macrophages, long-term treatment and cure; type: cell-based, Trypanosoma cruzi; conditions: 10 µM, infected J774 macrophages, treatment up to 27 days then 13–15 days without inhibitor
Procedure: Irradiated (1000 rads) J774 mouse macrophages were plated in 12-well tissue culture plates 24 h prior to infection with 10^5 T. cruzi Y strain trypomastigotes for 2 h at 37°C. […] Untreated controls, controls treated with the inhibitor K11777 (10 µM),[31], and uninfected macrophage controls were also included. All cultures were in triplicate and medium was replaced every 48 h. Treatment with CYP51 inhibitors continued for up to 27 days. Subsequently, treated cultures were maintained without inhibitor for an additional 13–15 days to confirm inhibitor effectiveness and cure of infected cells. Cultures were monitored daily by contrast phase microscopy to determine presence of T. cruzi infected cells and free infectious trypomastigotes (Table 2).

[2] = system: T. cruzi intracellular amastigotes; assay: IC50: T. cruzi intracellular amastigotes in J774 macrophages, parasites/cell; type: cell-based, Trypanosoma cruzi; conditions: 52 h; for mean number of parasites/cell: untreated 3.57±0.5 P/cell
Procedure: To determine IC50, mouse J774 macrophages were irradiated (1000 rads) to deter growth and plated onto 12-well tissue culture plates. Cells were infected with 10^5 tissue culture trypomastigotes of the Y strain of T. cruzi for 2 h at 37°C, as described above. […] All treatments were performed in triplicate to ensure statistical validity. Cultures were then fixed in 4% paraformaldehyde in PBS for 2 h at room temperature and stained with DAPI (10 nM) in PBS. One hundred cells and their intracellular parasites were quantified as previously described to estimate the mean number of parasites/cell. Mean P/cell data were plotted against compound concentration to estimate the IC50.

T. brucei = T. brucei assay, viability by ATP-bioluminescence (CellTiter-Glo); type: cell-based, Trypanosoma brucei; conditions: highest tested concentration 10 µM, 48 h
Procedure: Trypanosomes were grown in complete HMI-9 medium containing 10% FBS, 10% Serum Plus medium (Sigma Inc. St. Louis Mo. USA) and 1× penicillin/streptomycin. Trypanosomes were diluted to 1.0×10^5/ml in complete HMI-9 medium. Diluted trypanosomes were aliquoted in Greiner sterile 96-well flat white opaque culture plates using a WellMate cell dispenser (Matrix Tech., Hudson, NH, USA). Compounds 8 and 10 were serially diluted in Me2SO. Trypanosomes were incubated with the compounds for 48 h at 37°C with 5% CO2 before monitoring viability. Trypanosomes were then lysed in the wells by adding 50 µl of CellTiter-GloTM (Promega Inc., Madison, WI, USA). Lysed trypanosomes were placed on an orbital shaker at room temperature for 2 min. The resulting ATP-bioluminescence of the trypanosomes in the 96-well plates was measured at room temperature using an Analyst HT plate reader (Molecular Devices, Sunnyvale, CA, USA).

[3] = spectral titration, room temperature, pH 7.5, read-out: KD, μM CYP51Tc

T1 sequence (Q7Z1V1 21-481, looked up, natural form): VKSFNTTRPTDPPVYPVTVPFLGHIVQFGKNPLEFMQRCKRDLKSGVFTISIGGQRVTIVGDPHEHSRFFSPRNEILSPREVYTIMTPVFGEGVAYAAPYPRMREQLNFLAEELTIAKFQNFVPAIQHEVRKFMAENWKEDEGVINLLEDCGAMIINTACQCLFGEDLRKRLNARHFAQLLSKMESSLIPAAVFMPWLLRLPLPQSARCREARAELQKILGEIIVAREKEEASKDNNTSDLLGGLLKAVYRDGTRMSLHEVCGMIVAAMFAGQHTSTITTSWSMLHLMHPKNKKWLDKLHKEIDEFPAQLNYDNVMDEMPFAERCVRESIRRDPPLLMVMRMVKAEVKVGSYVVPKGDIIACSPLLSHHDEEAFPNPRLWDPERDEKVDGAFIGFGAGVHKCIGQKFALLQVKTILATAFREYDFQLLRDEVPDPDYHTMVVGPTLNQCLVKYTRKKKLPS

| SMILES | KD, μM CYP51Tb (CYP51Tb) | Host cell survival [1] [days] | T. cruzi development [1] | mean number of parasites/cell ([2]; 10 µM) [P/cell] | inhibitory effects against cultured T. brucei (T. brucei) | Kd (CYP51Tc; [3]) [µM] | Kd (CYP51Tb) [µM] | also measured |
| --- | --- | --- | --- | --- | --- | --- | --- | --- |
| Cc1ccc(S(=O)(=O)NCCCOC(=O)Nc2ccncc2)cc1 [Compound 8, 3-{[(4-methylphenyl)sulfonyl]amino}propylpyridin-4-ylcarbamate] | no binding | 5 | 5 days | 1.22±0.1 | neither compound 8 nor 10 had any inhibitory effects | – | – | Kd (CYP51Tc; KD (affinity toward CYP51Tc), spectral assays): 0.16 µM; Kd (CYP51Tc; KD, μM CYP51Tc, spectral titration, room temperature, pH 7.5): 0.16 ± 0.03 µM |
| Cn1c(=O)c2c(ncn2CC(=O)Nc2ccncc2)n(C)c1=O [Compound 7] | – | – | – | – | – | 20.7 ± 0.8 | > 100 | – |
| CCC(C(=O)Nc1ccncc1)c1ccccc1 (stereo not drawn) [EBPA, α-ethyl-N-4-pyridinyl-benzeneacetamide, reference compound] | – | – | – | – | – | 0.48 ± 0.08 | – | – |
| CC1CCC(C(=O)NC(Cc2c[nH]c3ccccc23)C(=O)Nc2ccncc2)CC1 (centres unmarked) [Compound 10] | no binding | 40 | No | 0.25±0.01 | neither compound 8 nor 10 had any inhibitory effects | – | – | T. cruzi development ([1]; listed as compound 10): No parasites survived; inhibition at 10 µM ([2]; Trypanosoma cruzi, 10 µM, read-out: growth inhibition): 100%; IC50 ([2]; Trypanosoma cruzi, Y strain, read-out: IC50 for T. cruzi intracellular growth inhibition): ~0.001 µM; inhibitory effects against cultured T. brucei (T. brucei; listed as compound 10): inactive |
| CSCC[C@H](NC(=O)[C@H]1CC[C@@H](C)CC1)C(=O)Nc1ccncc1 [Compound 9, cis-4-methyl-N-[(1S)-3-(methylsulfanyl)-1-(pyridin-4-ylcarbamoyl)propyl]cyclohexanecarboxamide] | – | – | – | – | – | – | 6.5 ± 0.6 | – |
